Results from patent US20260224516A1, “PHARMACEUTICAL FOR TREATING OR PREVENTING CHEMOTHERAPY-INDUCED PERIPHERAL NEUROPATHY” (NIPPON CHEMIPHAR CO., LTD., priority 2023, published 2026).

Columns and labels:
[1] = system: oxaliplatin-induced peripheral neuropathy model mice; assay: Oxaliplatin-induced mouse neuropathic pain model (Example 7): mechanical allodynia, Uralyt and sodium bicarbonate; format: in vivo, male C57BL/6J mice; conditions: 0.75 g/kg sodium bicarbonate oral twice per day for 13 days; OXP 3 mg/kg i.p. single dose; FIG. 14: day 10
Experimental: (§1) For the alkalinizing agent, the same test substance as Example 1 and sodium bicarbonate (in this description also referred to as baking soda, manufactured by Tokyo Chemical Industry Co., Ltd., purity: at least 99.0%) were used. Following weighing of the required amount of the sodium bicarbonate, sufficient injection water was added to dissolve the sodium bicarbonate and prepare a solution of the target concentration at the time of use.
(§2) In the Sham group and the control group, the injection water used as the solvent for the alkalinizing agent was used.
(§3) The same type of animals as Example 1 were used. Specifically, six-week old male C57BL/6J mice (from Japan SLC, Inc.) were used. The animals were provided with an approximately one-week acclimatization period, and only healthy individuals were then selected for testing. […]
(§4) Grouping was conducted using the pain-related scores evaluated on the day prior to starting the test (the day prior to test substance administration) as a reference, and specifically, by dividing the individuals into each of the groups to ensure the same averaged pain-related score for each group. […]
Following the OXP administration, the level of pain was evaluated over time. […] A pain evaluation was also conducted on a day prior to the start of alkalinizing agent administration, and this evaluation was recorded as the Pre value. […]

[2] = system: paclitaxel-induced peripheral neuropathy model mice; assay: Paclitaxel-induced mouse neuropathic pain model (Example 8): mechanical allodynia, Uralyt and sodium bicarbonate; format: in vivo, male C57BL/6J mice; conditions: 0.75 g/kg sodium bicarbonate oral twice per day for 17 days; PTX 5 mg/kg i.p. single dose; FIG. 16: day 14
Experimental: as §1, §2, §3, §4
Following the PTX administration, the level of pain was evaluated over time. […] A pain evaluation was also conducted on a day prior to the start of alkalinizing agent administration, and this evaluation was recorded as the Pre value. […]

## O=C([O-])O.[Na+] [sodium bicarbonate]
[1]
  onset of mechanical allodynia (pain-related score): suppressed the onset of mechanical allodynia, but the effect was smaller than that observed for the Uralyt administration group
[2]
  onset of mechanical allodynia (pain-related score): suppressed the onset of mechanical allodynia, but the effect was smaller than that observed for the Uralyt administration group
